Experimental data taken from patent US12465594B2 (Brown University, priority 2018, dated 2025).

What was measured:
CRF2 = CRF2 (Homo sapiens, UniProt Q13324); assay: CRF2 Ca2+ assay (absence of CRFBP(10 kD)); details: presence of EC80 CRF
M1 = M1 (Homo sapiens, UniProt P11229); assay: PDSP binding assay; details: 10 μM, quadruplicate, cloned target
D5 = D5 (Homo sapiens, UniProt P21918); assay: PDSP binding assay; details: 10 μM, quadruplicate, cloned target
H4 = H4 (Homo sapiens, UniProt Q9H3N8); assay: PDSP binding assay; details: 10 μM, quadruplicate, cloned target
Sequence of H4 (Q9H3N8 whole entry): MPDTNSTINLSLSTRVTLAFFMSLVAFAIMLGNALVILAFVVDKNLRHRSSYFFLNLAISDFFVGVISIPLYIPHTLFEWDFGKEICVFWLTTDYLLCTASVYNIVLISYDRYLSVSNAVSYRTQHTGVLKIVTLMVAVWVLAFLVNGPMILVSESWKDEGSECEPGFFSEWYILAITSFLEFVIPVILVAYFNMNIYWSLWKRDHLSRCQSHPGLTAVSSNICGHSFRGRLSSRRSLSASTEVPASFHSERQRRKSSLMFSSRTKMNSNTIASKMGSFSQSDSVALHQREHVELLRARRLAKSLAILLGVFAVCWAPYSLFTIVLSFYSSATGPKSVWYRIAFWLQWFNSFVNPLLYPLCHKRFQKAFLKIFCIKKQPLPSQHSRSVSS

Sequence of M1 (P11229 whole entry): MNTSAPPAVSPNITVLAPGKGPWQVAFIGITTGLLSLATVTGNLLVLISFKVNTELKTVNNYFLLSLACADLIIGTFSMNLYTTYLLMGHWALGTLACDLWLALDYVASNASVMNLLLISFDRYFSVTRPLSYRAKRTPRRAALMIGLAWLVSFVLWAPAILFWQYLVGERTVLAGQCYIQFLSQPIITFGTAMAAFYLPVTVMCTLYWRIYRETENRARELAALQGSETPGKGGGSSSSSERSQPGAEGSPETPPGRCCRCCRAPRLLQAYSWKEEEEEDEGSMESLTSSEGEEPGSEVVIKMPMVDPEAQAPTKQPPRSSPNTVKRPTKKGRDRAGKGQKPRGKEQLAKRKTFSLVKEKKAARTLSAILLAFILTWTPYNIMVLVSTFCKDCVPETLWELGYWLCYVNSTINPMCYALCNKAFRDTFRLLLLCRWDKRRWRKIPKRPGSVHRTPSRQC
Sequence of D5 (P21918 whole entry): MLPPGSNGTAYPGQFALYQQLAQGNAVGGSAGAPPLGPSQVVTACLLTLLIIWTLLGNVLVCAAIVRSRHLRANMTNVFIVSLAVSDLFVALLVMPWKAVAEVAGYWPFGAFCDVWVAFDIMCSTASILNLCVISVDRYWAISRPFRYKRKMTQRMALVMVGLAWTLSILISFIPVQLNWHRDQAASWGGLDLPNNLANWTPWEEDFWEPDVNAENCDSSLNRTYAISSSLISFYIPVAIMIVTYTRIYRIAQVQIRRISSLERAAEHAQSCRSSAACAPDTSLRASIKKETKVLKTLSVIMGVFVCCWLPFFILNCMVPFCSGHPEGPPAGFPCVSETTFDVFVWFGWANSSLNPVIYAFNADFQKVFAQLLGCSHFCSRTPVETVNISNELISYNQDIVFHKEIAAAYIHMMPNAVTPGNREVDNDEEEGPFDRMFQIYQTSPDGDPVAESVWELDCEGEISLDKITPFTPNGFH
Sequence of CRF2 (Q13324 whole entry): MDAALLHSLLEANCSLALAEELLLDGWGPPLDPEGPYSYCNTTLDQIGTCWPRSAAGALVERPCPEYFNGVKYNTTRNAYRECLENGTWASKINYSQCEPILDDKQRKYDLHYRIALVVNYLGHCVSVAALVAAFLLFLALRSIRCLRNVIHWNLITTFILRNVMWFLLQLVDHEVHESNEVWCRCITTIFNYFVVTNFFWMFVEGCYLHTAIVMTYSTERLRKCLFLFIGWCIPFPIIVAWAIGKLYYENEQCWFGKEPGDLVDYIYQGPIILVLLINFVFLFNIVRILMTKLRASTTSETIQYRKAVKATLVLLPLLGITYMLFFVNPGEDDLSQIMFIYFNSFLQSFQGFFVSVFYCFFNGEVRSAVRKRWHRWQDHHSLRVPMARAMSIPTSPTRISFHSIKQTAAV

`Brc1ccccc1-c1nnc(CSc2nnnn2-c2ccccc2)o1` [MLS-0046818] was tested, and the “Activity toward CRF2 in the absence of CRFBP(10 kD)” value (CRF2) was “inactive”, the “Activity at M1 (binding assay)” value (M1) was −15% and the “Activity at D5 (binding assay)” value (D5) was 12%. The “Activity at H4 (binding assay)” value (H4) was 8%.

`CC(C)Cn1c(SCC(=O)N2CCc3ccccc3C2)nc2cc(Cl)ccc2c1=O` [MLS-0219419] was tested, and the “Activity at M1 (binding assay)” value (M1) was −15%, the “Activity at D5 (binding assay)” value (D5) was −15% and the “Activity at H4 (binding assay)” value (H4) was −15%.
